The values below come from ChEMBL document CHEMBL1201862, “PubChem BioAssay data set” (2004).

In experiment [1] the target is T1, Sentrin-specific protease 8 (Homo sapiens, UniProt Q96LD8).
T1 sequence (Q96LD8 whole entry): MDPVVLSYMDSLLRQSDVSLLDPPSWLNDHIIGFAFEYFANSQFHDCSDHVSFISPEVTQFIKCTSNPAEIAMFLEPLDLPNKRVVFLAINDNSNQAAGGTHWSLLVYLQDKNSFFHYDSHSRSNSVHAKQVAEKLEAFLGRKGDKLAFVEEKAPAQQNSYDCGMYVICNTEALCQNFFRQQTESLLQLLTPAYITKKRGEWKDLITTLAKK
As to the kind of experiment: inhibition of human SENP8 cleavage activity – biochemical, luminescence, SAR follow-up (AID 504501). Format: functional.

The target in experiment [2] is T2, Caspase-3 (Homo sapiens, UniProt P42574).
T2 sequence (P42574 whole entry): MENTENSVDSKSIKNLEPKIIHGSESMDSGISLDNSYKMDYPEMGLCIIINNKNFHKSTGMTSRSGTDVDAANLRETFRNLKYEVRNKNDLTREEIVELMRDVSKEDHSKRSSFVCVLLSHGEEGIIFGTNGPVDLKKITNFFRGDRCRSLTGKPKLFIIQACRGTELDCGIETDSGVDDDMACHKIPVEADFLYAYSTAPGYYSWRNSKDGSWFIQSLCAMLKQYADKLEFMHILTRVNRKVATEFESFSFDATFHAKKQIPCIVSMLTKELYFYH
As to the kind of experiment: SAR Analysis of small molecule inhibitors of Sentrin-specific proteases (SENPs) using a Caspase-3 Selectivity assay. [Related pubchem assays (depositor defined):AID2540, AID2599, AID434973, AID489001]. The format is functional.

For experiment [3], the target named is T3, Sentrin-specific protease 6 (Homo sapiens, UniProt Q9GZR1).
T3 sequence (Q9GZR1 whole entry): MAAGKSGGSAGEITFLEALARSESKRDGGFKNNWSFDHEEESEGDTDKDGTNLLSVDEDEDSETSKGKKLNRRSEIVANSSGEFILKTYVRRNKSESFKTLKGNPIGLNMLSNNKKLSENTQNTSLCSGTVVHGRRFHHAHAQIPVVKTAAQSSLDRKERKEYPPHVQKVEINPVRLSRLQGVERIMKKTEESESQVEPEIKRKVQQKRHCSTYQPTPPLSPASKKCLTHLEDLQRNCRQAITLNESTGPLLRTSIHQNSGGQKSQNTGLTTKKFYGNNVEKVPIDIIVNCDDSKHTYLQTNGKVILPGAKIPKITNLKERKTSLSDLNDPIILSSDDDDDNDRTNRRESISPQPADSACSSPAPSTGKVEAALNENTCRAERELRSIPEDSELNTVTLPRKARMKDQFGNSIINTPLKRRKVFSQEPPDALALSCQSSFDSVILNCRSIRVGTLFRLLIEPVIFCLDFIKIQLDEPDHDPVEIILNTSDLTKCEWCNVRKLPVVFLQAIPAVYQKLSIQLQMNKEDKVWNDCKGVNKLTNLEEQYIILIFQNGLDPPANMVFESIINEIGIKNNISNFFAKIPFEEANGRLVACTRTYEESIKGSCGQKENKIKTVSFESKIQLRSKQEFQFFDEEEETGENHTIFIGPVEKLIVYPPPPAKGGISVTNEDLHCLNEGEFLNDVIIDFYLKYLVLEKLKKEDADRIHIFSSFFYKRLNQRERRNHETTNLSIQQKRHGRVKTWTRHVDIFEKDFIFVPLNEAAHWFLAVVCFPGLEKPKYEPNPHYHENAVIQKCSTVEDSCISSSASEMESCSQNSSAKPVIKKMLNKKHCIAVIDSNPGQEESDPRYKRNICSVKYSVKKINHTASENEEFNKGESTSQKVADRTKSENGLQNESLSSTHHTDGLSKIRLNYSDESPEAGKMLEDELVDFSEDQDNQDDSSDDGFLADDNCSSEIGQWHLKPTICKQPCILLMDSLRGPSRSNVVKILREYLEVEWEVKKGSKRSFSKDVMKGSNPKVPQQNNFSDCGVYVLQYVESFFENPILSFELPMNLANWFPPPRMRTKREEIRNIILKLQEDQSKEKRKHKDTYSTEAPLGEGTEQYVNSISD
Put plainly: SAR Analysis of small molecule inhibitors of Sentrin-specific protease 6 (SENP6) using a Luminescent assay. [Related pubchem assays (depositor defined):AID2582, AID2599]. Format: functional.

Experiment [4] has as its target T4, Sentrin-specific protease 7 (Homo sapiens, UniProt Q9BQF6).
T4 sequence (Q9BQF6 whole entry): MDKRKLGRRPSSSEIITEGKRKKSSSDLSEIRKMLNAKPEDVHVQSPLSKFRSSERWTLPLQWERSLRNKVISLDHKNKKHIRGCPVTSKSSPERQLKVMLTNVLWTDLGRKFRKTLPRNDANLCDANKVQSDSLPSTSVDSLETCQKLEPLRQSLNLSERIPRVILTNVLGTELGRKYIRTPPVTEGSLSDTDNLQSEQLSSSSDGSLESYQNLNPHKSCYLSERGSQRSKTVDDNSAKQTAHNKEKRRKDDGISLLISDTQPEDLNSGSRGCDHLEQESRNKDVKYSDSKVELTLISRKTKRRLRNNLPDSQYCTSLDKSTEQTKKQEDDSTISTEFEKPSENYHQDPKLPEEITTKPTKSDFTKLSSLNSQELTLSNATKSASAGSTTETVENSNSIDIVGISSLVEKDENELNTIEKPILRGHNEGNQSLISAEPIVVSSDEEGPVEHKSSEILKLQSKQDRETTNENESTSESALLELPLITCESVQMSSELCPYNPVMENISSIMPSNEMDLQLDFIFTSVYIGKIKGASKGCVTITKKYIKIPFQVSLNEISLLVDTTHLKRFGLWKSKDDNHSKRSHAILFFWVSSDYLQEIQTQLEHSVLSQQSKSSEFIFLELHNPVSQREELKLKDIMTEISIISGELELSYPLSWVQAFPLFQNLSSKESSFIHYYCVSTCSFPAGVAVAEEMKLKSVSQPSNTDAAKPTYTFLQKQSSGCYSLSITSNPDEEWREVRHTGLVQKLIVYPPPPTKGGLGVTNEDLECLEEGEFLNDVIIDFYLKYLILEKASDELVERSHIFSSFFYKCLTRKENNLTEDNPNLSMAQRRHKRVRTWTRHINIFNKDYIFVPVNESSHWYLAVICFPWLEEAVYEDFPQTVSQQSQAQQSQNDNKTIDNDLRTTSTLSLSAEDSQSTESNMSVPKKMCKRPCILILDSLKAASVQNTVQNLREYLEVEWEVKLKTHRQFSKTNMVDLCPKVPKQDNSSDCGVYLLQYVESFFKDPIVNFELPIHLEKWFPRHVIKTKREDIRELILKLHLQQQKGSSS
Put plainly: inhibition of human SENP7 cleavage activity – biochemical, luminescence, SAR follow-up (AID 504497). The format is functional.

In experiment [5] the test system is HEK293. Put plainly: optical interference in Abeta FP readout, dose response, artefact control for IDE activator project, biochemical, fluorescence polarization (AID 588442). The format is functional, cell-based. Particulars: Homo sapiens.
Experiment [6] relates to HEK293. Put plainly: membrane integrity loss in HEK cells – cell-based, fluorescence, cytotoxicity control for IDE activator project, dose response (AID 588440).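 Note: cytotoxicity by LDH release measuring loss of membrane integrity.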 As to conditions: Homo sapiens. Format: functional.
Experiment [7] deals with T5, Insulin-degrading enzyme (Homo sapiens, UniProt P14735).
T5 sequence (P14735 whole entry): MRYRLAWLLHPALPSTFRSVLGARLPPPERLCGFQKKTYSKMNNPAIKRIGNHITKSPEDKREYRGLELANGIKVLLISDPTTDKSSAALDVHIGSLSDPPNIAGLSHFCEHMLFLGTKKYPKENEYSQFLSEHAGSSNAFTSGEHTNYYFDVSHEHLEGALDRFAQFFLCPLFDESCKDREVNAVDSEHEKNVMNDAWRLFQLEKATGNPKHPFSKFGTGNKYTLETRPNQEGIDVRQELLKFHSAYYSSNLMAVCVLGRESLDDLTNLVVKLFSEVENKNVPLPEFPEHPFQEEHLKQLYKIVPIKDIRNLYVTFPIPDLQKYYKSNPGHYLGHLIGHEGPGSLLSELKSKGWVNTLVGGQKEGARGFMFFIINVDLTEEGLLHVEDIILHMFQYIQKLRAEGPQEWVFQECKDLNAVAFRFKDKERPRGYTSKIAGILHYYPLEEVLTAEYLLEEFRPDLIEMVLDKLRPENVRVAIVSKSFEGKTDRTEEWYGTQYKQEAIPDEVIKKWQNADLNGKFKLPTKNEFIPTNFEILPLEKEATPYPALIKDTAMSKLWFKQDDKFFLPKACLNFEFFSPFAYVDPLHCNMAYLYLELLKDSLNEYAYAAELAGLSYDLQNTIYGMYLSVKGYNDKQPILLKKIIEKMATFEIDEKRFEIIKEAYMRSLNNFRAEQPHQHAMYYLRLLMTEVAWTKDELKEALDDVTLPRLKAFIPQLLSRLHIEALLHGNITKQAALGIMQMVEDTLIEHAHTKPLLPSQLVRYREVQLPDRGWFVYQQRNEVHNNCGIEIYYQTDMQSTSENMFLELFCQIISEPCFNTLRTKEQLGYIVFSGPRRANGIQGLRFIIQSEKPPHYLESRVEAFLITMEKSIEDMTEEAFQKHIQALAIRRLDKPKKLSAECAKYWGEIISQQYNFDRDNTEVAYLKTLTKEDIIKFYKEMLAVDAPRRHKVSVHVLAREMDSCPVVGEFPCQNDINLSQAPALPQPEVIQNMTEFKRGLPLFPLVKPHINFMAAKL
Put plainly: recombinant IDE activation, cell-free – biochemical, fluorescence polarization, counter-screen for IDE activator project, dose response (AID 588681).

Experiment [8] has as its target T5, Insulin-degrading enzyme. Put plainly: cellular IDE activation of Abeta substrate cleavage – fluorescence polarization, HEK cells, dose response (AID 588439). The format is functional, cell-based.
Experiment [9] concerns CHO. Put plainly: CHO cell viability loss, potency – luminescence, cytotoxicity control for TLR9-MyD88 binding inhibitor project, dose response (AID 588339).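 Note: CHO cells stably coexpressing TLR9 and MyD88 fusions from primary screen; compound exposure lasted 48 hours before viability readout.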 The format is functional, cell-based, hamster. Particulars: Cricetulus griseus.
The target of experiment [10] is Beta Lactamase (Pseudomonas aeruginosa, UniProt Q932Y6). As to the kind of experiment: BLA reporter interference, concentration series – BLA reporter cells, FRET fluorescence, artefact control for TLR9-MyD88 binding inhibitor project, dose response (AID 588341).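 Note: cell based assay in CHO-K1 cells stably expressing beta-lactamase.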 The format is cell-based.

A word on the IC50: it is the point on the concentration scale where inhibition reaches its midpoint. For orientation: EC50 means the concentration that produces a half-maximal response.

The structures appear in SMILES notation. The source made the active and inactive calls. Bounds are passed on as bounds.

Beta Lactamase, sequence (Q932Y6 whole entry): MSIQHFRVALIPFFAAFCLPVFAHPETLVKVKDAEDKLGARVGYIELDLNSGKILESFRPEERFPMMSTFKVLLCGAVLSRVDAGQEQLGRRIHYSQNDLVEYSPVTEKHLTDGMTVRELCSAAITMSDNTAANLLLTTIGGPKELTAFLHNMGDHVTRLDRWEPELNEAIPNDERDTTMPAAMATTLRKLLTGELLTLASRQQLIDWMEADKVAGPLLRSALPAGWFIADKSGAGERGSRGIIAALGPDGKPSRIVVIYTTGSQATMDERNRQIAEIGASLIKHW

Turning to `COc1ccc(C2C(C#N)=C(/N=C/N(C)C)Oc3c2c(C)nn3-c2ccccc2)cc1` (centres undefined), the IC50 in experiment [1], in experiment [2], in experiment [3] and in [4] was > 99 µM (inactive) each time.
For the compound `Fc1cc(F)cc(-c2noc(/C=C/c3ccccc3)n2)c1`, the IC50 in experiment [1], in experiment [2], in [3] and in [4] was > 99 µM (inactive) in each case.
Consider `C=CCN1C(=O)c2ccc(C(=O)OCC(=O)N(CC)C3CCS(=O)(=O)C3)cc2C1=O` (centres undefined), for which the EC50 in experiment [5], in experiment [7] and in experiment [8] was > 54.7 µM (inactive) throughout. The IC50 in [6] was > 89.2 µM (inactive).
In the case of `CCC(=O)c1ccc(/C=C/c2nc3ccccc3n2C)o1`, the IC50 is > 49.7 µM (inactive) in [9] and 5.11 µM (active) in [10].
